For this assay, the system named is SARS-CoV-2 pseudovirus (VSV-ΔG) entry into ACE2/Furin expressing host cells (Vero-E6). The assay is described as follows: microbe, parasite or virus in culture. The format is cell-based, SARS-CoV-2 pseudovirus / African Green Monkey cells. To be noted: Severe acute respiratory syndrome-related coronavirus, Vero C1008, 20 h, read-out: IC50, inhibition of pseudovirus entry (VSV-ΔG).

`O=C(Nc1ccc(-c2ccc(C(=O)Nc3cccc4cc(S(=O)(=O)O)ccc34)cc2)cc1)c1ccc([N+](=O)[O-])cc1` [Compound A2, 5-(4′-(4-Nitrobenzamido)biphenyl-4-ylcarboxamido)naphthalene-2-sulfonic acid]: the IC50 was found to be 7 µM.

Take `Nc1c(/N=N/c2ccc(-c3ccc(/N=N/c4cc(S(=O)(=O)O)c5ccccc5c4N)cc3)cc2)cc(S(=O)(=O)O)c2ccccc12` [Congo red]: the half-inhibitory concentration (IC50) is 16 µM.

These data come from patent US20230381159A1 (priority 2020, published 2023).
